According to ChEMBL document CHEMBL1126598, “Novel nonopioid non-antiinflammatory analgesics: 3-(aminoalkyl)- and 3-[(4-aryl-1-piperazinyl)alkyl]oxazolo[4,5-b]pyridin-2(3H)-ones” (J Med Chem, 1993):
The source made the active and inactive calls. The calls are words filed in the database; no cut-off is given here.

Legend:
[1] = system: Mus musculus; test: General behavior in mice after oral administration (1000 mg/kg) using acute toxicity assay; decreased locomotor activity, increased muscular tonus; format: functional, organism-based
[2] = species on record: Mus musculus; test: Analgesic activity in mice using p-phenylquinone test.; format: functional
[3] = Percent mortality in mice after oral administration (1000 mg/kg) using acute toxicity assay; format: organism-based; details: mouse, in vivo
[4] = system: Mus musculus; test: General behavior in mice after oral administration (1000 mg/kg) using acute toxicity assay; Convulsions; format: functional, organism-based
[5] = system: Mus musculus; test: General behavior in mice after oral administration (500 mg/kg) using acute toxicity assay; Convulsions; format: functional, organism-based
[6] = Percent mortality in mice after oral administration (500 mg/kg) using acute toxicity assay; format: organism-based; details: mouse, in vivo
[7] = system: Rattus norvegicus; test: Anti-inflammatory effect expressed as % inhibition at 50 mg/kg in acute carrageenan paw edema test in rats; format: functional
[8] = system: Mus musculus; test: General behavior in mice after oral administration (1000 mg/kg) using acute toxicity assay; decreased locomotor activity, decreased muscular tonus; format: functional, organism-based
[9] = system: Mus musculus; test: General behavior in mice after oral administration (1000 mg/kg) using acute toxicity assay; Normal; format: functional, organism-based
[10] = system: Rattus norvegicus; test: Anti-inflammatory effect expressed as % inhibition at 100 mg/kg in acute carrageenan paw edema test in rats; No inhibition; format: functional, organism-based; parameters: dose 100 mg/kg
[11] = system: Mus musculus; test: General behavior in mice after oral administration (1000 mg/kg) using acute toxicity assay; normal; format: functional, organism-based
[12] = system: Mus musculus; test: General behavior in mice after oral administration (1000 mg/kg) using acute toxicity assay; convulsions; format: functional, organism-based
[13] = system: Rattus norvegicus; test: Anti-inflammatory effect expressed as % inhibition at 100 mg/kg in acute carrageenan paw edema test in rats; format: functional
[14] = system: Mus musculus; test: General behavior in mice after oral administration (1000 mg/kg) using acute toxicity assay; decreased muscular tonus; format: functional, organism-based
[15] = system: Mus musculus; test: General behavior in mice after oral administration (500 mg/kg) using acute toxicity assay; Increased muscular tonus; format: functional, organism-based
[16] = system: Mus musculus; test: General behavior in mice after oral administration (1000 mg/kg) using acute toxicity assay; sedation, decreased muscular tonus; format: functional, organism-based
[17] = system: Rattus norvegicus; test: Anti-inflammatory effect expressed as % inhibition at 50 mg/kg in acute carrageenan paw edema test in rats; No inhibition; format: functional, organism-based; parameters: dose 50 mg/kg
[18] = system: Mus musculus; test: General behavior in mice after oral administration (1000 mg/kg) using acute toxicity assay; Increased muscular tonus; format: functional, organism-based
[19] = system: Mus musculus; test: General behavior in mice after oral administration (1000 mg/kg) using acute toxicity assay; Increased locomotor activity, convulsive tendency; format: functional, organism-based
[20] = system: Mus musculus; test: General behavior in mice after oral administration (750 mg/kg) using acute toxicity assay; Convulsions; format: functional, organism-based
[21] = Percent mortality in mice after oral administration (750 mg/kg) using acute toxicity assay; format: organism-based; details: mouse, in vivo

Q: For `O=c1oc2cccnc2n1CCN1CCN(c2ccc(Cl)cc2)CC1`, which Behavior [1] is on record?
A: The Behavior was “decreased locomotor activity, increased muscular tonus”.

Q: And the ED50 [2]?
A: The ED50 was greater than 50 mg/kg.

Q: What about the mortality [3] of the same compound?
A: The mortality was 0%.

Q: With `O=c1oc2cccnc2n1CCCCN1CCN(c2ccccc2)CC1` as the compound, how does the Behavior [4] read?
A: Its Behavior is “Convulsions”.

Q: What about the ED50 [2] of the same compound?
A: Its ED50 is greater than 25 mg/kg.

Q: What about the mortality [3] of the same compound?
A: Its mortality is 100%.

Q: Which Behavior [5] does the source give for `O=c1oc2cccnc2n1CN1CCN(c2ccc(F)cc2)CC1` here?
A: Its Behavior is “Convulsions”.

Q: What about the ED50 [2] of the same compound?
A: The ED50 was 3.5 mg/kg.

Q: And the mortality [6]?
A: The mortality was 100%.

Q: Which Behavior [5] does the source give for `COc1ccccc1N1CCN(Cn2c(=O)oc3cccnc32)CC1` here?
A: Its Behavior is “Convulsions”.

Q: And the ED50 [2]?
A: The ED50 was greater than 25 mg/kg.

Q: What about the mortality [6] of the same compound?
A: Its mortality is 100%.

Q: And the inhibition in vivo at 50 mg/kg [7]?
A: Its inhibition in vivo at 50 mg/kg is 15%.

Q: What does the source list for `O=c1oc2cccnc2n1CCCN1CCN(c2ccccc2)CC1`?
A: Behavior [8]: decreased locomotor activity, decreased muscular tonus; ED50 [2]: 15.5 mg/kg; mortality [3]: 10%; inhibition in vivo at 50 mg/kg [7]: 16%

Q: For `COc1ccccc1N1CCN(CCn2c(=O)oc3cccnc32)CC1`, which Behavior [9] is on record?
A: The Behavior was “Normal”.

Q: What about the ED50 [2] of the same compound?
A: The ED50 was greater than 50 mg/kg.

Q: And the mortality [3]?
A: Its mortality is 0%.

Q: And the inhibition [10]?
A: Its inhibition is “inactive”.

Q: What does the source list for `O=c1oc2cccnc2n1CN1CCN(c2cccc(Cl)c2)CC1`?
A: Behavior [5]: Convulsions; ED50 [2]: 10.5 mg/kg; mortality [6]: 100%; inhibition in vivo at 50 mg/kg [7]: 27%

Q: With `O=c1oc2cccnc2n1CCN1CCN(c2ccccc2)CC1` as the compound, how does the Behavior [9] read?
A: Its Behavior is “Normal”.

Q: And the ED50 [2]?
A: Its ED50 is 19.4 mg/kg.

Q: What about the mortality [3] of the same compound?
A: The mortality was 0%.

Q: And the inhibition in vivo at 50 mg/kg [7]?
A: The inhibition in vivo at 50 mg/kg was 13%.

Q: For `CCN(CC)CCn1c(=O)oc2cccnc21`, which Behavior [4] is on record?
A: The Behavior was “Convulsions”.

Q: And the ED50 [2]?
A: The ED50 was greater than 25 mg/kg.

Q: And the mortality [3]?
A: Its mortality is 83%.

Q: Which results are given for `O=c1oc2cc(Br)cnc2n1CCN1CCN(c2ccccc2)CC1`?
A: Behavior [11]: normal; ED50 [2]: 34.1 mg/kg; mortality [3]: 0%

Q: With `O=c1oc2cccnc2n1CN1CCN(c2ccc(Cl)cc2)CC1` as the compound, how does the Behavior [5] read?
A: The Behavior was “Convulsions”.

Q: What about the ED50 [2] of the same compound?
A: The ED50 was 10.6 mg/kg.

Q: And the mortality [6]?
A: The mortality was 90%.

Q: And the inhibition in vivo at 50 mg/kg [7]?
A: The inhibition in vivo at 50 mg/kg was 23%.

Q: Which Behavior [12] does the source give for `O=c1oc2cccnc2n1CCN1CCCCC1` here?
A: Its Behavior is “convulsions”.

Q: What about the ED50 [2] of the same compound?
A: Its ED50 is greater than 25 mg/kg.

Q: And the mortality [3]?
A: Its mortality is 66%.

Q: What about the inhibition in vivo at 100 mg/kg [13] of the same compound?
A: The inhibition in vivo at 100 mg/kg was 21%.

Q: For `O=C(OCC(O)CO)c1ccccc1Nc1ccnc2cc(Cl)ccc12` (stereo not drawn) [GLAFENINE], which Behavior [9] is on record?
A: Its Behavior is “inactive”.

Q: And the ED50 [2]?
A: The ED50 was 29.3 mg/kg.

Q: And the mortality [3]?
A: The mortality was 30%.

Q: And the inhibition in vivo at 50 mg/kg [7]?
A: The inhibition in vivo at 50 mg/kg was 36%.

Q: For `O=c1oc2cccnc2n1CCN1CCN(c2ccc(F)cc2)CC1`, which Behavior [14] is on record?
A: Its Behavior is “decreased muscular tonus”.

Q: And the ED50 [2]?
A: The ED50 was 41.3 mg/kg.

Q: And the mortality [3]?
A: The mortality was 0%.

Q: And the inhibition in vivo at 50 mg/kg [7]?
A: Its inhibition in vivo at 50 mg/kg is 16%.

Q: Which Behavior [11] does the source give for `O=c1oc2cccnc2n1CCN1CCN(c2ccc(Oc3ccccc3)cc2)CC1` here?
A: The Behavior was “normal”.

Q: What about the ED50 [2] of the same compound?
A: Its ED50 is greater than 50 mg/kg.

Q: And the mortality [3]?
A: The mortality was 0%.

Q: What does the source list for `O=c1oc2cccnc2n1CN1CCN(c2cccc(C(F)(F)F)c2)CC1`?
A: Behavior [15]: Increased muscular tonus; ED50 [2]: 3.6 mg/kg; mortality [6]: 50%; inhibition in vivo at 50 mg/kg [7]: 25%

Q: Which Behavior [16] does the source give for `O=c1oc2ccccc2n1CCN1CCN(c2ccccc2)CC1` here?
A: The Behavior was “sedation, decreased muscular tonus”.

Q: What about the ED50 [2] of the same compound?
A: Its ED50 is greater than 50 mg/kg.

Q: What about the mortality [3] of the same compound?
A: The mortality was 0%.

Q: And the inhibition in vivo at 50 mg/kg [7]?
A: Its inhibition in vivo at 50 mg/kg is 1%.

Q: Which Behavior [4] does the source give for `CN1CCN(CCn2c(=O)oc3cccnc32)CC1` here?
A: The Behavior was “Convulsions”.

Q: What about the ED50 [2] of the same compound?
A: The ED50 was greater than 25 mg/kg.

Q: What about the mortality [3] of the same compound?
A: Its mortality is 50%.

Q: And the inhibition [10]?
A: The inhibition was “inactive”.

Q: With `O=c1oc2ccccc2n1CCN1CCN(c2cccc(C(F)(F)F)c2)CC1` as the compound, how does the Behavior [9] read?
A: Its Behavior is “Normal”.

Q: And the ED50 [2]?
A: The ED50 was 30.2 mg/kg.

Q: What about the mortality [3] of the same compound?
A: Its mortality is 0%.

Q: What about the inhibition [17] of the same compound?
A: Its inhibition is “inactive”.

Q: Which Behavior [5] does the source give for `O=c1oc2cccnc2n1CN1CCN(c2ccccc2)CC1` here?
A: Its Behavior is “Convulsions”.

Q: And the ED50 [2]?
A: Its ED50 is 5.9 mg/kg.

Q: And the mortality [6]?
A: Its mortality is 70%.

Q: What about the inhibition in vivo at 50 mg/kg [7] of the same compound?
A: The inhibition in vivo at 50 mg/kg was 11%.

Q: For `O=c1oc2cccnc2n1CCN1CCOCC1`, which Behavior [18] is on record?
A: The Behavior was “Increased muscular tonus”.

Q: And the ED50 [2]?
A: The ED50 was greater than 25 mg/kg.

Q: What about the mortality [3] of the same compound?
A: The mortality was 50%.

Q: And the inhibition in vivo at 100 mg/kg [13]?
A: Its inhibition in vivo at 100 mg/kg is 7%.

Q: For `O=c1oc2cccnc2n1CCN1CCN(c2cccc(C(F)(F)F)c2)CC1`, which Behavior [19] is on record?
A: The Behavior was “Increased locomotor activity, convulsive tendancy”.

Q: And the ED50 [2]?
A: Its ED50 is 11.4 mg/kg.

Q: What about the mortality [3] of the same compound?
A: Its mortality is 0%.

Q: And the inhibition [17]?
A: Its inhibition is “inactive”.

Q: What does the source list for `Cc1ccc2oc(=O)n(CCN3CCN(c4ccccc4)CC3)c2n1`?
A: Behavior [9]: Normal; ED50 [2]: > 50 mg/kg; mortality [3]: 0%; inhibition in vivo at 100 mg/kg [13]: 2%

Q: Which Behavior [20] does the source give for `COc1ccc2c3c1O[C@H]1[C@@H](O)C=C[C@H]4[C@@H](C2)N(C)CC[C@@]341` [CODEINE] here?
A: Its Behavior is “Active”.

Q: What about the ED50 [2] of the same compound?
A: Its ED50 is 9.7 mg/kg.

Q: And the mortality [21]?
A: Its mortality is 40%.

Q: What about the inhibition in vivo at 50 mg/kg [7] of the same compound?
A: Its inhibition in vivo at 50 mg/kg is 20%.

Q: What does the source list for `O=c1oc2cccnc2n1CCCN1CCN(c2cccc(C(F)(F)F)c2)CC1`?
A: Behavior [12]: convulsions; ED50 [2]: 22 mg/kg; mortality [3]: 50%; inhibition [17]: inactive

Q: For `O=c1oc2cccnc2n1CN1CCN(c2ccccc2Cl)CC1`, which Behavior [5] is on record?
A: Its Behavior is “Convulsions”.

Q: What about the ED50 [2] of the same compound?
A: The ED50 was 22.2 mg/kg.

Q: What about the mortality [6] of the same compound?
A: Its mortality is 100%.

Q: And the inhibition [17]?
A: The inhibition was “inactive”.
